Where a chain is given by its changes, count along the chain named. Values joined by “and” are separate entries in the source; they are usually repeats but may differ in a detail not shown here. Equal entries are not always repeated. Where two headings read alike, the source gives them in different places.
Experiments:
Assay type in all cases: cell-based
[1] = biological target: T1, wild-type TAS2R16 (Homo sapiens, UniProt Q9NYV7); test: Ca2+ flux assay, HEK-293T cells expressing wild-type TAS2R16 and Gα16gust44
T1 construct: FLAG (N); expressed in transfected cells; host or cells: HEK-293T
T1 sequence (Q9NYV7 1-291): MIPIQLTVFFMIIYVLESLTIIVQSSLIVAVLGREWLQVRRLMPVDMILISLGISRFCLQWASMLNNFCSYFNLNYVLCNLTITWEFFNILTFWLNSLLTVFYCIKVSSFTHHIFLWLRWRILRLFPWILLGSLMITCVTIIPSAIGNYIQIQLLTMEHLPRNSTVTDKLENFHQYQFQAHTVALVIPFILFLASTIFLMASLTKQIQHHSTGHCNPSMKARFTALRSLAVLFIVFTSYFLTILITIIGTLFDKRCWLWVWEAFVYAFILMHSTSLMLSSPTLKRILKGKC
Procedure: (§1) The TAS2R16 mutation library was tested for function using a Ca^2+ flux assay as described previously. Later screens of individual TAS2R16 mutant clones used 4-nitrophenyl-β-D-glucopyranoside. Briefly, HEK-293T cells, in poly-lysine coated, black 384-well plates with clear bottoms (Costar), were transfected with the TAS2R16 mutation library, and a plasmid expressing a Gα16 chimera containing the last 44 amino acids of rat gustducin (Gα16gust44). Cells were incubated for 22 hours at 37 °C then washed twice with a calcium indicator dye in HBSS containing 20 mM HEPES (Calcium 4 Assay kit, Molecular Devices), incubated with HBSS for 1.5 hr, then moved to a Flexstation II-384 (Molecular Devices) set at 32 °C. […] Concentrations for mutation library screening were chosen to be approximately 2 to 3 times higher than the EC50 values for the ligands to maximize the sensitivity of detecting decreases in signaling due to the mutation in each clone.
(§2) For Ca^2+ flux assays, the value of fluorescence at 30 seconds after ligand addition (the time of peak signal for wild-type TAS2R16) was used as the maximum value. […] Raw data obtained from surface expression and flux experiments were normalized to the values for wild-type TAS2R16 on each plate. Data sets were analyzed and represented as percentage over baseline signal. Mean and standard deviation values were calculated for each clone from replicate assay data.
(§3) Ligand dose-response data was analyzed with Graphpad Prism 5 software. Data was baseline subtracted and then fit using a sigmoidal dose-response (variable slope) equation.

[2] = biological target: T2, W261A TAS2R16 (Homo sapiens, UniProt Q9NYV7, W261A); test: Ca2+ flux assay, W261A TAS2R16 variant
T2 construct: FLAG (N); expressed in transfected cells; host or cells: HEK-293T
T2 sequence (Q9NYV7 1-291 W261A): T1 sequence (Q9NYV7 1-291) with W261A
Procedure: as §1, §2, §3

[3] = biological target: T3, N96T TAS2R16 (Homo sapiens, UniProt Q9NYV7, N96T); test: Ca2+ flux assay, N96T TAS2R16 variant; settings: Fig. 7 dose-response
T3 construct: FLAG (N); expressed in transfected cells; host or cells: HEK-293T
Procedure: as §1
(§4) For Ca^2+ flux assays, the value of fluorescence at 30 seconds after ligand addition (the time of peak signal for wild-type TAS2R16) was used as the maximum value. […] Data sets were analyzed and represented as percentage over baseline signal. Mean and standard deviation values were calculated for each clone from replicate assay data.
(§5) Ligand dose-response data was analyzed with Graphpad Prism 5 software. […]

[4] = biological target: T4, N96A TAS2R16 (Homo sapiens, UniProt Q9NYV7, N96A); test: Ca2+ flux assay, N96A TAS2R16 variant; settings: Fig. 7 dose-response
T4 construct: FLAG (N); expressed in transfected cells; host or cells: HEK-293T
Procedure: as §1, §4, §5

[5] = biological target: T5, S228T TAS2R16 (Homo sapiens, UniProt Q9NYV7, S228T); test: Ca2+ flux assay, mutation library clone S228T; settings: library screening concentrations
T5 construct: FLAG (N); expressed in transfected cells; host or cells: HEK-293T
T5 sequence (Q9NYV7 1-291 S228T): T1 sequence (Q9NYV7 1-291) with S228T
Procedure: as §1, §2

[6] = biological target: T6, Y14H TAS2R16 (Homo sapiens, UniProt Q9NYV7, Y14H); test: Ca2+ flux assay, mutation library clone Y14H; settings: 3 mM salicin, mean (range, max-min), n=3
T6 construct: FLAG (N); expressed in transfected cells; host or cells: HEK-293T
Procedure: as §1, §4

[7] = biological target: T7, Q24R TAS2R16 (Homo sapiens, UniProt Q9NYV7, Q24R); test: Ca2+ flux assay, mutation library clone Q24R; settings: 3 mM salicin, mean (range, max-min), n=3
T7 construct: FLAG (N); expressed in transfected cells; host or cells: HEK-293T
Procedure: as §1, §4

[8] = biological target: T8, C58R TAS2R16 (Homo sapiens, UniProt Q9NYV7, C58R); test: Ca2+ flux assay, mutation library clone C58R; settings: 3 mM salicin, mean (range, max-min), n=3
T8 construct: V5; expressed in transfected cells; host or cells: HEK-293T
Procedure: as §1, §4

[9] = biological target: T9, Q60R TAS2R16 (Homo sapiens, UniProt Q9NYV7, Q60R); test: Ca2+ flux assay, mutation library clone Q60R; settings: 3 mM salicin, mean (range, max-min), n=3
T9 construct: V5; expressed in transfected cells; host or cells: HEK-293T
Procedure: as §1, §4

[10] = biological target: T10, M64R TAS2R16 (Homo sapiens, UniProt Q9NYV7, M64R); test: Ca2+ flux assay, mutation library clone M64R; settings: 3 mM salicin, mean (range, max-min), n=3
T10 construct: Each construct in the mutation library was tested for full-length TAS2R16 translation; V5; expressed in transfected cells; host or cells: HEK-293T
Procedure: as §1, §4

[11] = biological target: T11, S97R TAS2R16 (Homo sapiens, UniProt Q9NYV7, S97R); test: Ca2+ flux assay, mutation library clone S97R; settings: 3 mM salicin, mean (range, max-min), n=3
T11 construct: Each construct in the mutation library was tested for full-length TAS2R16 translation; V5; expressed in transfected cells; host or cells: HEK-293T
Procedure: as §1, §4

[12] = biological target: T12, L134R TAS2R16 (Homo sapiens, UniProt Q9NYV7, L134R); test: Ca2+ flux assay, mutation library clone L134R; settings: 3 mM salicin, mean (range, max-min), n=3
T12 construct: Each construct in the mutation library was tested for full-length TAS2R16 translation; V5; expressed in transfected cells; host or cells: HEK-293T
Procedure: as §1, §4

[13] = biological target: T13, N172K TAS2R16 (Homo sapiens, UniProt Q9NYV7, N172K); test: Ca2+ flux assay, mutation library clone N172K; settings: 3 mM salicin, mean (range, max-min), n=3
T13 construct: Each construct in the mutation library was tested for full-length TAS2R16 translation; V5; expressed in transfected cells; host or cells: HEK-293T
Procedure: as §1, §4

[14] = biological target: T14, L276R TAS2R16 (Homo sapiens, UniProt Q9NYV7, L276R); test: Ca2+ flux assay, mutation library clone L276R; settings: 3 mM salicin, mean (range, max-min), n=3
T14 construct: V5; expressed in transfected cells; host or cells: HEK-293T
Procedure: as §1, §4

T13 sequence (Q9NYV7 whole entry N172K): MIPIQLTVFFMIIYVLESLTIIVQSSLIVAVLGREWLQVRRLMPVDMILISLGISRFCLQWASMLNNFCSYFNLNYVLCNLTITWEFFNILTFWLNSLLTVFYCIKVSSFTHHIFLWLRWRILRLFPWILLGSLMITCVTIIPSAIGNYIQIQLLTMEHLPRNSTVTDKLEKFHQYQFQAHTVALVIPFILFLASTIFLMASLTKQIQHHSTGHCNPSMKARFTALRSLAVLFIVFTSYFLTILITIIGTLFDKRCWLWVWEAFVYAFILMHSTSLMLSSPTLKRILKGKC
T6 sequence (Q9NYV7 whole entry Y14H): as the sequence (Q9NYV7 whole entry N172K) above, with Y14H, K172N counted along it
T8 sequence (Q9NYV7 whole entry C58R): as the sequence (Q9NYV7 whole entry N172K) above, with C58R, K172N counted along it
T9 sequence (Q9NYV7 whole entry Q60R): as the sequence (Q9NYV7 whole entry N172K) above, with Q60R, K172N counted along it
T3 sequence (Q9NYV7 whole entry N96T): as the sequence (Q9NYV7 whole entry N172K) above, with N96T, K172N counted along it
T12 sequence (Q9NYV7 whole entry L134R): as the sequence (Q9NYV7 whole entry N172K) above, with L134R, K172N counted along it
T14 sequence (Q9NYV7 whole entry L276R): as the sequence (Q9NYV7 whole entry N172K) above, with K172N, L276R counted along it
T4 sequence (Q9NYV7 whole entry N96A): as the sequence (Q9NYV7 whole entry N172K) above, with N96A, K172N counted along it
T7 sequence (Q9NYV7 whole entry Q24R): as the sequence (Q9NYV7 whole entry N172K) above, with Q24R, K172N counted along it
T11 sequence (Q9NYV7 whole entry S97R): as the sequence (Q9NYV7 whole entry N172K) above, with S97R, K172N counted along it
T10 sequence (Q9NYV7 whole entry M64R): as the sequence (Q9NYV7 whole entry N172K) above, with M64R, K172N counted along it

OCc1ccccc1O[C@@H]1O[C@H](CO)[C@@H](O)[C@H](O)[C@H]1O [salicin]
EC50 ([1]; Fig. 5b dose-response, wild-type TAS2R16, read-out: EC50 (WT)): 1100 µM
EC50 ([1]; Fig. 6 comparative dose-response, wild-type TAS2R16, read-out: EC50 (WT)): 1700 µM
EC50 ([1]; Fig. 7 dose-response, wild-type TAS2R16, read-out: EC50 (WT)): 5500 µM
EC50 ([1]; Fig. 2d dose-response, wild-type TAS2R16, HEK-293T, read-out: EC50): 1200 µM
activation of wild-type TAS2R16 ([1]; wild-type TAS2R16, HEK-293T): robust receptor activation
EC50 ([2]; Fig. 5b dose-response, W261A TAS2R16): ~13400 µM
activation of W261A variant ([2]; W261A TAS2R16, relative to wild-type): eliminated activation
EC50 [3]: 800 µM
EC50 [4]: 6500 µM
Ca2+ flux signaling value [5]: 90 % of wild-type
Ca2+ flux in response to salicin [6]: 9 (9) % of wild-type
Ca2+ flux in response to salicin [7]: 9 (9) % of wild-type
Ca2+ flux in response to salicin [8]: 5 (2) % of wild-type
Ca2+ flux in response to salicin [9]: 4 (7) % of wild-type
Ca2+ flux in response to salicin [10]: 14 (1) % of wild-type
Ca2+ flux in response to salicin [11]: 0 (5) % of wild-type
Ca2+ flux in response to salicin [12]: 1 (8) % of wild-type
Ca2+ flux in response to salicin [13]: 83 (13) % of wild-type and 83 % of wild-type
Ca2+ flux in response to salicin [14]: 17 (7) % of wild-type
